Values of other authors, collected in patent publication EP0640130B1, “CHIMERIC M[…] ANALOGUES AND METHODS OF USE THEREOF” (CREATIVE BIOMOLECULES, INC., priority 1992, dated 1993).

Molecular target: 26-10 sFv (anti-digoxin single-chain Fv)

C[C@@H]1O[C@@H](O[C@H]2C[C@@H](O)[C@]3(CO)[C@H]4[C@H](O)C[C@]5(C)[C@@H](C6=CC(=O)OC6)CC[C@]5(O)[C@@H]4CC[C@]3(O)C2)[C@H](O)[C@H](O)[C@H]1O [Ouabain]
Ka for association with 26-10 sFv: about 10^7 M^-1
